Test results as given in patent publication US5496849A, “Sulfonic acid derivative and its pharmaceutical application” (Toray Industries, Inc., priority 1992, dated 1996).

What was measured:
[1] = system: vasoconstriction of rat thoracic aorta induced by U-46619; assay: Vasoconstriction inhibitory action (U-46619-induced constriction of thoracic aorta spiral specimens); set-up: species or system long Evans rats; settings: 10 min, pH 7.4, minimum concentration at which inhibition rate was 50% or more, 10 ng/ml U-46619, drug applied 10 minutes, 37° C., read-out: Vasoconstriction Inhibitory Action MIC
Protocol: Male and female long Evans rats having body weights of 150-200 g were used in this example. After sacrificing the animals by decapitation, the thoracic aorta was removed, and the outer membrane was peeled off to obtain I2 spiral specimens roughly 2 cm in length. Blood vessel specimens were warmed to 37° C. and preserved in a Magnus tube containing 10 ml of a nutrient solution aerated with 95% oxygen+5% carbon dioxide gas. The nutrient solution contained 118.3 mmol of NaCl, 4.7 mmol of KCl, […] of CaCl, 1.2 mmol of MgSO4, 1.2 mmol of KH2 PO4, 25 mmol of NaCHO3, 11.1 mmol of D-glucose, 0.03 mmol of EDTA along with 1 μg/ml each of atropin, phentolamine, mepiramine, cyproheptadine, propranolol and indometacin, and was adjusted to a pH of 7.4. Vasoconstriction was measured using an isometric transducer (Harward UF-1 Transducer and Sekonic SS-250F Graph recorder). An equilibration time of 3 hours was provided after the blood vessels were installed on the Magnus device, and fresh nutrient solution was replaced every 30 minutes during that time. […] of U-46619, having TXA2 action (to reach roughly 75% of maximum constriction), was applied for 30 minutes to constrict the vessels. The maximum stable constriction during this time was taken to be the control constriction (C1). Next, the blood vessels were washed several times with nutrient solution to remove the drug. After allowing a recovery period of 30 minutes, the test drugs were applied at various concentrations for 10 minutes followed by again constricting the vessels by applying 10 ng/ml of U-46619 for 30 minutes. The maximum stable constriction during this time was taken to be the constriction of the test drugs (C2). The inhibition rates of vasoconstriction induced by the drugs and U-46619 were determined according to the following formula, and the minimum concentration at which the inhibition rate was 50% or more was determined as the minimum inhibitory concentration (MIC).
((C1-C2)/C1)×100=Inhibition rate (%)

Thromboxane A2 Receptor = target: T1, Thromboxane A2 Receptor (Oryctolagus cuniculus, UniProt Q6WQI8); assay: Receptor binding experiment: Thromboxane A2 Receptor Binding Test ([3H]SQ29548, washed platelets); set-up: species or system New Zealand White rabbits; settings: rabbit washed platelets; [3H]SQ29548 3 nM; 60 minutes at 25° C.; read-out: Binding Inhibitory Action IC50 (converted)
T1 sequence (Q6WQI8 1-233): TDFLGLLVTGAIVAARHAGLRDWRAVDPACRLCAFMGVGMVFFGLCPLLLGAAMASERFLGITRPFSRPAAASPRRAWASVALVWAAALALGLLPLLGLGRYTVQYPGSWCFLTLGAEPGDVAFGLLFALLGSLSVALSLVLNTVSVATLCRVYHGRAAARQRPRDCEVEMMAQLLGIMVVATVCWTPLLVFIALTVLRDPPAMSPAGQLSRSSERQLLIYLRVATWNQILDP
Protocol: Whole blood from New Zealand White rabbits was collected into a container containing ACD solution (1.175 g of sodium citrate, 0.685 g of citric acid, and 1 g of dextrose dissolved in 50 ml of distilled water) followed by centrifuging at room temperature for 10 minutes at 180 ×g to obtain platelet-rich plasma. Moreover, this platelet-rich plasma was further centrifuged at room temperature and 2800 ×g to result in sedimentation of the platelets. The platelets were resuspended in 50 mM Tris hydrochloric acid buffer solution (pH 7.2, containing […]) and again centrifuged at 4° C. for 15 minutes at 2800 ×g. This procedure was repeated twice to prepare the washed platelets, and adjusted to a final concentration of 10 mg/ml (wet weight). Tritium-labelled SQ29548 ([3H]SQ29548) was used for the TXA2 ligand. In an antagonism experiment, 20 μl of [3H]SQ29548 at a final concentration of 3 nM were added to 500 μl of a 10 mg/ml platelet suspension, together with adding 2.6 μl of the test drug dissolved in a suitable buffer. After incubating for 60 minutes at 25° C., the mixture was filtered over a glass filter using the Celherbster method, the filter was washed with 50 mM Tris hydrochloric acid buffer solution (3 ×4 ml), and radioactivity was measured with a scintillation counter to determine the amount of [3H]SQ29548 bound to the platelets. In addition, in a saturation test, 20 μl of [3H]SQ29548 were added to a final concentration of 0.1-50 nM followed by the addition of 2.6 μl of BM13505 at a final concentration of 1 μM in order to examine non-specific binding and carry out a binding experiment. The concentration of the test drug which inhibited binding of [3H]SQ29548 by 50% was determined as the IC50 value.

[2] = system: platelet aggregation induced by U-46619 in human platelet-rich plasma (PRP); assay: Platelet aggregation inhibitory action (U-46619-induced, human platelet-rich plasma); assay type: cell-based; settings: compounds added 1 minute before U-46619, turbidity
Protocol: Human whole blood drawn from the median cubital vein was centrifuged for 10 minutes at 800 rpm, and the upper portion was collected as platelet-rich plasma (PRP). […] The size of the aggregates were measured with a platelet aggregate measuring instrument (Hematracer 1, Nikko Bioscience) as the change in turbidity. The compounds were added 1 minute before addition of U-46619, and the concentration which inhibits aggregation by 50% was calculated as the IC50 value.

Structure (SMILES) | minimal effective concentration [1] | IC50 (Thromboxane A2 Receptor) | IC50 [2]
O=C(O)c1cccc2c1O[C@H]1C[C@@H](O)[C@H](NS(=O)(=O)c3ccccc3)[C@@H]21 (racemic) [(39), (1RS, 2RS, 3aSR, 8bRS)-1-benzenesulfonamido-2-hydroxy-2,3,3a,8b-tetrahydro-1H-cyclopenta[b]benzofuran-5-carboxylic acid] | 0.25 µg/mL |  | 
O=C(O)Cc1cccc2c1O[C@H]1C[C@@H](O)[C@H](NS(=O)(=O)c3ccccc3)[C@@H]21 (racemic) [(41), (1RS, 2RS, 3aSR, 8bRS)-1-benzenesulfonamido-2-hydroxy-2,3,3a,8b-tetrahydro-1H-cyclopenta[b]benzofuran-5-acetic acid] | 0.25 µg/mL | 2.08 µM | 1.7 µM
O=C(O)CCc1cccc2c1O[C@H]1C[C@@H](O)[C@H](NS(=O)(=O)c3ccccc3)[C@@H]21 (racemic) [(43), (1RS, 2RS, 3aSR, 8bRS)-1-benzenesulfonamido-2-hydroxy-2,3,3a,8b-tetrahydro-1H-cyclopenta[b]benzofuran-5-propionic acid] | 0.3 µg/mL | 0.322 µM | 0.51 µM
O=C(O)CCCc1cccc2c1O[C@H]1C[C@@H](O)[C@H](NS(=O)(=O)c3ccccc3)[C@@H]21 (racemic) [(45), (1RS, 2RS, 3aSR, 8bRS)-1-benzenesulfonamido-2-hydroxy-2,3,3a,8b-tetrahydro-1H-cyclopenta[b]benzofuran-5-butyric acid] |  | 4.79 µM | 4.3 µM
COC(=O)COc1cccc2c1O[C@H]1C[C@@H](O)[C@H](NS(=O)(=O)c3ccccc3)[C@@H]21 (racemic) [(46), (1RS, 2RS, 3aSR, 8bRS)-1-benzenesulfonamido-2-hydroxy-2,3,3a,8b-tetrahydro-1H-cyclopenta[b]benzofuran-5-yloxyacetic acid methyl ester] | 0.03 µg/mL | 0.0231 µM | 0.068 µM
O=C(O)COc1cccc2c1O[C@H]1C[C@@H](O)[C@H](NS(=O)(=O)c3ccccc3)[C@@H]21 (racemic) [(47), (1RS, 2RS, 3aSR, 8bRS)-1-benzenesulfonamido-2-hydroxy-2,3,3a,8b-tetrahydro-1H-cyclopenta[b]benzofuran-5-yloxyacetic acid] | 0.025 µg/mL | 0.0074 µM | 0.018 µM
COc1ccc(S(=O)(=O)N[C@@H]2[C@H]3c4cccc(OCC(=O)O)c4O[C@H]3C[C@H]2O)cc1 (racemic) [(51), (1RS, 2RS, 3aSR, 8bRS)-1-(p-methoxybenzenesulfonamido)-2-hydroxy-2,3,3a,8b-tetrahydro-1H-cyclopenta[b]benzofuran-5-yloxyacetic acid] | 0.1 µg/mL | 0.0276 µM | 0.068 µM
O=C(O)COc1cccc2c1O[C@H]1C[C@@H](O)[C@H](NS(=O)(=O)c3ccc(F)cc3)[C@@H]21 (racemic) [(53), (1RS, 2RS, 3aSR, 8bRS)-1-(p-fluorobenzenesulfonamido)-2-hydroxy-2,3,3a,8b-tetrahydro-1H-cyclopenta[b]benzofuran-5-yloxyacetic acid] | 0.05 µg/mL | 0.021 µM | 0.033 µM
O=C(O)COc1cccc2c1O[C@H]1C[C@@H](O)[C@H](NS(=O)(=O)c3ccc(C(F)(F)F)cc3)[C@@H]21 (racemic) [(65), (1RS, 2RS, 3aSR, 8bRS)-1-(p-trifluoromethylbenzenesulfonamido)-2-hydroxy-2,3,3a,8b-tetrahydro-1H-cyclopenta [b]benzofuran-5-yloxyacetic acid] |  | 0.0972 µM | 0.27 µM
O=C(O)COc1cccc2c1O[C@H]1C[C@@H](O)[C@H](NS(=O)(=O)Cc3ccccc3)[C@@H]21 (racemic) [(74), (1RS, 2RS, 3aSR, 8bRS)-1-phenylmethanesulfonamido-2-hydroxy-2,3,3a,8b-tetrahydro-1H-cyclopenta[b]benzofuran-5-yloxyacetic acid] |  | 0.858 µM | 5.3 µM
O=C(O)COc1cccc2c1O[C@H]1C[C@@H](O)[C@H](NS(=O)(=O)CCc3ccccc3)[C@@H]21 (racemic) [(76), (1RS, 2RS, 3aSR, 8bRS)-1-(2-phenylethanesulfonamido)-2-hydroxy-2,3,3a,8b-tetrahydro-1H-cyclopenta[b]benzofuran-5-yloxyacetic acid] |  | 0.122 µM | 0.55 µM
O=C(O)COc1cccc2c1O[C@H]1C[C@@H](O)[C@H](NS(=O)(=O)c3ccc4ccccc4c3)[C@@H]21 (racemic) [(78), (1RS, 2RS, 3aSR, 8bRS)-1-(2-naphthalenesulfonamido)-2-hydroxy-2,3,3a,8b-tetrahydro-1H-cyclopenta[b]benzofuran-5-yloxyacetic acid] |  | 0.00209 µM | 0.051 µM
CCCCS(=O)(=O)N[C@@H]1[C@H]2c3cccc(OCC(=O)O)c3O[C@H]2C[C@H]1O (racemic) [(82), (1RS, 2RS, 3aSR, 8bRS)-1-butanesulfonamido-2-hydroxy-2,3,3a,8b-tetrahydro-1H-cyclopenta[b]benzofuran-5-yloxyacetic acid] |  | 1.22 µM | 1 µM
CCCCCCCCS(=O)(=O)N[C@@H]1[C@H]2c3cccc(OCC(=O)O)c3O[C@H]2C[C@H]1O (racemic) [(84), (1RS, 2RS, 3aSR, 8bRS)-1-octanesulfonamido-2-hydroxy-2,3,3a,8b-tetrahydro-1H-cyclopenta[b]benzofuran-5-yloxyacetic acid] |  | 1.22 µM | 7.3 µM
COC(=O)COc1cccc2c1O[C@H]1C[C@@H](O)[C@H](CNS(=O)(=O)c3ccccc3)[C@@H]21 (racemic) [(96), (1SR, 2RS, 3aSR, 8bSR)-1-((benzenesulfonamido)methyl)-2-hydroxy-2,3,3a,8b-tetrahydro-1H-cyclopenta[b]benzofuran-5-yloxyacetic acid methyl ester] |  | 0.415 µM | 0.67 µM
Cc1ccc(S(=O)(=O)O[C@H]2CC[C@@H]3Oc4c(OCC(=O)O)cccc4[C@@H]32)cc1 (racemic) [(123), (1SR, 3aSR, 8bSR)-1-((p-tolyl)sulfonyloxy)-2,3,3a,8b-tetrahydro-1H-cyclopenta[b]benzofuran-5-yloxyacetic acid] |  |  | 0.093 µM
O=C(O)COc1cccc2c1O[C@H]1CC[C@H](OS(=O)(=O)c3ccc(Cl)cc3)[C@@H]21 (racemic) [(125), (1SR, 3aSR, 8bSR)-1-((p-chlorophenyl)sulfonyloxy)-2,3,3a,8b-tetrahydro-1H-cyclopenta[b]benzofuran-5-yloxyacetic acid] |  |  | 0.094 µM
O=C(O)COc1cccc2c1O[C@H]1CC[C@H](OS(=O)(=O)c3ccc(F)cc3)[C@@H]21 (racemic) [(127), (1SR, 3aSR, 8bSR)-1-((p-fluorophenyl)sulfonyloxy)-2,3,3a,8b-tetrahydro-1H-cyclopenta[b]benzofuran-5-yloxyacetic acid] |  |  | 0.1 µM
